We go through nine molecules from PubChem BioAssay (NCI).

Test systems include ACHN renal; EKVX NSCLC; HCC-2998 colon; HT29 colon; IGROV1 ovarian; MDA-MB-435; SNB-19 CNS; U251 CNS; UACC-257 melanoma; HL-60(TB) leukemia.
What all share (assay): growth of human tumour cells (NCI), 48 h

The structures appear in SMILES notation.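 48-hour exposure; five concentrations; linearly interpolated endpoints. Here, GI50 denotes the concentration required for 50% inhibition of growth. TGI: concentration producing complete growth inhibition.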 Bounds are passed on as bounds.

For `COC(=O)C(Cc1ccccc1)NC(=O)NC(=O)NC(=O)CI` (stereo not given), the GI50 in the assay on ACHN renal is 1.85 µM; in the assay on EKVX NSCLC, 11.9 µM; in the assay with HCC-2998 colon, 17.2 µM; with HT29 colon, 14.2 µM; in the assay with IGROV1 ovarian, 3.05 µM; with MDA-MB-435, 3.38 µM. In addition, the GI50 is 17.6 µM in the assay on SNB-19 CNS, 16.6 µM in the assay on U251 CNS and 13.2 µM in the assay with UACC-257 melanoma. The TGI with ACHN renal turned out to be 3.62 µM; in the assay on EKVX NSCLC, 25.3 µM; in the assay with HCC-2998 colon, 33.3 µM; in the assay with HT29 colon, 49.9 µM; in the assay on IGROV1 ovarian, 10.1 µM; in the assay on MDA-MB-435, 13.8 µM. Moreover, the TGI amounted to 36.4 µM with SNB-19 CNS, 30.5 µM in the assay on U251 CNS and 26.5 µM in the assay on UACC-257 melanoma.

`CC(=O)NC1=C(OS(=O)(=O)c2ccc(C)cc2)CN(C)C1=O`: the TGI in the assay on ACHN renal was 12.3 µM; in the assay with EKVX NSCLC, 14.2 µM; in the assay with HCC-2998 colon it was 11.5 µM; with HL-60(TB) leukemia, 7.09 µM; in the assay with HT29 colon, 20 µM; in the assay on IGROV1 ovarian, 12.1 µM. For the same molecule, the TGI came out at 16.7 µM in the assay on MDA-MB-435, 14.9 µM in the assay with SNB-19 CNS, 8.75 µM in the assay with U251 CNS and 11.8 µM with UACC-257 melanoma.

Consider `COc1cccc(NC(=O)c2sc3nc4c(cc3c2N)CN(Cc2ccccc2)CC4)c1`, for which the GI50 with ACHN renal was 3.46 µM; with HCC-2998 colon, 9.13 µM; in the assay on HT29 colon it was 3.75 µM; in the assay on IGROV1 ovarian it was 18.5 µM; in the assay on MDA-MB-435, 0.296 µM; with SNB-19 CNS, 4.75 µM. Also, the GI50 was 2.74 µM with U251 CNS and 6.52 µM in the assay on UACC-257 melanoma. The TGI in the assay with ACHN renal is 64.5 µM; with HCC-2998 colon it was greater than 100 µM; in the assay with HT29 colon it was 15.2 µM; in the assay on IGROV1 ovarian, greater than 100 µM; in the assay with MDA-MB-435, 11 µM; in the assay with SNB-19 CNS it was greater than 100 µM. For the same molecule, the results for the TGI with U251 CNS and in the assay on UACC-257 melanoma were 19.2 µM and greater than 100 µM, respectively.

In the case of `CCCCNCC(=O)O[C@]1(CC)C(=O)OCc2c1cc1n(c2=O)Cc2cc3ccccc3nc2-1`, the TGI in the assay with ACHN renal is 3.77 µM; with EKVX NSCLC, greater than 100 µM; with HCC-2998 colon, 8.76 µM; with HL-60(TB) leukemia, 0.314 µM; with HT29 colon it was greater than 100 µM; with IGROV1 ovarian, greater than 39.3 µM. Further, the TGI was 11.3 µM with MDA-MB-435, greater than 61.1 µM with SNB-19 CNS, 4.49 µM in the assay with U251 CNS and 8.19 µM in the assay with UACC-257 melanoma.

For `COC(=O)Cn1c2c(c3c(O)cccc31)C(=O)c1ccccc1-2`, the GI50 with ACHN renal, in the assay on EKVX NSCLC, in the assay on HCC-2998 colon, in the assay with HL-60(TB) leukemia, with HT29 colon and in the assay on IGROV1 ovarian was greater than 100 µM each time. Further, the GI50 in the assay with MDA-MB-435 is greater than 100 µM; in the assay with SNB-19 CNS, greater than 100 µM; in the assay with U251 CNS, 79.2 µM; in the assay with UACC-257 melanoma, greater than 100 µM. Besides, the TGI with ACHN renal, with EKVX NSCLC, with HCC-2998 colon, with HL-60(TB) leukemia, with HT29 colon and in the assay with IGROV1 ovarian was greater than 100 µM in each case. Besides, the TGI with MDA-MB-435, in the assay with SNB-19 CNS, in the assay with U251 CNS and with UACC-257 melanoma was greater than 100 µM throughout.

With `CCN1CCC(CCOC)(CN2c3ccccc3Sc3ccc(Cl)cc32)C1` (stereo not given), the GI50 in the assay with ACHN renal was 1.78 µM; in the assay with EKVX NSCLC, 2.04 µM; in the assay on HCC-2998 colon, 1.63 µM; with IGROV1 ovarian, 1.97 µM; with MDA-MB-435 it was 1.74 µM; in the assay on SNB-19 CNS, 2.65 µM. Also, the GI50 is 1.89 µM with U251 CNS and 1.93 µM in the assay on UACC-257 melanoma. Moreover, the TGI with ACHN renal was found to be 3.44 µM; in the assay with EKVX NSCLC it was 5.91 µM; in the assay on HCC-2998 colon it was 3.2 µM; in the assay with IGROV1 ovarian it was 3.99 µM; in the assay on MDA-MB-435 it was 3.35 µM; with SNB-19 CNS, 7.31 µM. Moreover, the values for the TGI in the assay with U251 CNS and with UACC-257 melanoma were 3.64 µM and 3.87 µM, respectively.

`CN(C)c1ccc2c(c1)Sc1cc(N(C)C)ccc1N2C(=O)c1ccccc1`: the GI50 with ACHN renal is 32.4 µM; in the assay with EKVX NSCLC it was 13.2 µM; in the assay with HCC-2998 colon, 73.2 µM; in the assay on HL-60(TB) leukemia, 4.5 µM; in the assay with IGROV1 ovarian it was 14.1 µM; in the assay on MDA-MB-435, 65 µM. In addition, the GI50 in the assay on SNB-19 CNS was 34.2 µM; with U251 CNS, 45.5 µM; with UACC-257 melanoma, greater than 100 µM. For the same molecule, the TGI in the assay with ACHN renal is greater than 100 µM; in the assay with EKVX NSCLC, greater than 100 µM; in the assay with HCC-2998 colon, greater than 100 µM; in the assay on HL-60(TB) leukemia, greater than 100 µM; in the assay on IGROV1 ovarian it was 77.6 µM; with MDA-MB-435, greater than 100 µM. Moreover, the TGI in the assay on SNB-19 CNS, in the assay on U251 CNS and in the assay with UACC-257 melanoma was greater than 100 µM each time.

Regarding `Clc1cc(Cl)c(OCC#CI)cc1Cl`, the GI50 in the assay with ACHN renal is 3.01 µM; with EKVX NSCLC it was 14 µM; in the assay on HCC-2998 colon, 19.6 µM; in the assay with HL-60(TB) leukemia it was 2 µM; in the assay with HT29 colon it was 2.1 µM; with MDA-MB-435 it was 2.02 µM. Moreover, the GI50 in the assay on SNB-19 CNS is 18.3 µM; in the assay on U251 CNS, 15.4 µM; with UACC-257 melanoma it was 2.79 µM. The TGI is 12 µM with ACHN renal; 30.2 µM with EKVX NSCLC; 33.8 µM with HCC-2998 colon; 5.22 µM with HL-60(TB) leukemia; 5.66 µM in the assay on HT29 colon; 5.44 µM in the assay with MDA-MB-435. Also, the results for the TGI in the assay with SNB-19 CNS, in the assay with U251 CNS and in the assay on UACC-257 melanoma were 43.9 µM, 29.6 µM and 11.9 µM, respectively.

As to `C=CCOC1OC(CO[Si](C)(C)C(C)(C)C)C(OCc2ccccc2)C(OCc2ccccc2)C1OCc1ccccc1` (stereo not given), the TGI with ACHN renal, with EKVX NSCLC, with HL-60(TB) leukemia, with HT29 colon, in the assay on IGROV1 ovarian and in the assay on MDA-MB-435 was greater than 100 µM in each case. Also, the TGI in the assay with SNB-19 CNS is 60.3 µM; with U251 CNS, greater than 100 µM; in the assay on UACC-257 melanoma, greater than 100 µM.
